From US8829007B2 (priority 2009, dated 2014)
pEC50, pIC50: −log10 of the molar value. Where two headings read alike, the source gives them in different places.

Key:
[1] = system: influenza A virus (A/PR/8/34); assay: microbe, parasite or virus in culture; format: cell-based; conditions: Influenza A virus, PR/8, MDCK
[2] = system: A/PR/8/34 influenza virus; assay: microbe, parasite or virus in culture; format: cell-based; conditions: Influenza A virus, PR/8, MDCK
[3] = MDCK cells infected with A/PR/8/34, cell protection (CPE), read-out: IC50 (mean all)
[4] = MDCK cells infected with A/PR/8/34, bDNA viral RNA, read-out: EC50 (mean all)
[5] = mean all, A/PR/8/34 infected MDCK cells, CPE assay, read-out: IC50
[6] = mean all, A/PR/8/34 influenza virus in MDCK cells, bDNA assay, read-out: EC50

SMILES	pIC50 [1, 3]	pEC50 [2, 4]	pIC50 [1, 5]	pEC50 [2, 6]
C#CCCCC(=O)N1CCCC[C@@H]1CNc1nc(-c2c[nH]c3ncc(Cl)cc23)ncc1F [Compound 281, (R)-1-(2-((2-(5-chloro-1H-pyrrolo[2,3-b]pyridin-3-yl)-5-fluoropyrimidin-4-ylamino)methyl)piperidin-1-yl)hex-5-yn-1-one]	> 5.30	> 5.30	–	–
O=C(CCc1ccccc1)N1CCCC[C@@H]1CNc1nc(-c2c[nH]c3ncc(Cl)cc23)ncc1F [Compound 293, (R)-1-(2-((2-(5-chloro-1H-pyrrolo[2,3-b]pyridin-3-yl)-5-fluoropyrimidin-4-ylamino)methyl)piperidin-1-yl)-3-phenylpropan-1-one]	> 5.30	> 5.30	–	–
CCCC(=O)N1CCCC[C@@H]1CNc1nc(-c2c[nH]c3ncc(Cl)cc23)ncc1F [Compound 295, (R)-1-(2-((2-(5-chloro-1H-pyrrolo[2,3-b]pyridin-3-yl)-5-fluoropyrimidin-4-ylamino)methyl)piperidin-1-yl)butan-1-one]	> 5.30	> 5.30	–	–
CCCS(=O)(=O)N1CCC[C@H](Nc2nc(-c3c[nH]c4ncc(Cl)cc34)ncc2F)C1 [Compound 306, (S)-2-(5-chloro-1H-pyrrolo[2,3-b]pyridin-3-yl)-5-fluoro-N-(1-(propylsulfonyl)-piperidin-3-yl)pyrimidin-4-amine]	–	–	> 5.30	> 5.30
CCCS(=O)(=O)N1CCC[C@@H](Nc2nc(-c3c[nH]c4ncc(Cl)cc34)ncc2F)C1 [Compound 316, (R)-2-(5-chloro-1H-pyrrolo[2,3-b]pyridin-3-yl)-5-fluoro-N-(1-(propylsulfonyl)piperidin-3-yl)pyrimidin-4-amine]	–	–	4.70 to 5.30	> 5.30
O=C(C1CC1)N1CCC[C@@H](Nc2nc(-c3c[nH]c4ncc(Cl)cc34)ncc2F)C1 [Compound 317]	–	–	4.70 to 5.30	> 5.30
CC(C)CC(=O)N1CCC[C@@H](Nc2nc(-c3c[nH]c4ncc(Cl)cc34)ncc2F)C1 [Compound 318]	–	–	< 4.70	> 5.30
O=C(C1CCC1)N1CCC[C@@H](Nc2nc(-c3c[nH]c4ncc(Cl)cc34)ncc2F)C1 [Compound 319]	–	–	< 4.70	> 5.30
COCCC(=O)N1CCC[C@@H](Nc2nc(-c3c[nH]c4ncc(Cl)cc34)ncc2F)C1 [Compound 320]	–	–	4.70 to 5.30	5.00 to 5.30
CCS(=O)(=O)N1CCC[C@@H](Nc2nc(-c3c[nH]c4ncc(Cl)cc34)ncc2F)C1 [Compound 321, (R)-2-(5-chloro-1H-pyrrolo[2,3-b]pyridin-3-yl)-N-(1-(ethylsulfonyl)piperidin-3-yl)-5-fluoropyrimidin-4-amine]	–	–	4.70 to 5.30	> 5.30
CC(C)S(=O)(=O)N1CCC[C@@H](Nc2nc(-c3c[nH]c4ncc(Cl)cc34)ncc2F)C1 [Compound 322, (R)-2-(5-chloro-1H-pyrrolo[2,3-b]pyridin-3-yl)-5-fluoro-N-(1-(isopropylsulfonyl)-piperidin-3-yl)pyrimidin-4-amine]	–	–	< 4.70	> 5.30
CCCCNC(=O)N1CCC[C@H](Nc2nc(-c3c[nH]c4ncc(Cl)cc34)ncc2F)C1 [Compound 323]	–	–	< 4.70	> 5.30
CCCNC(=O)N1CCC[C@H](Nc2nc(-c3c[nH]c4ncc(Cl)cc34)ncc2F)C1 [Compound 324]	–	–	4.70 to 5.30	> 5.30
O=C(C1CC1)N1CCC[C@H](CNc2nc(-c3c[nH]c4ncc(Cl)cc34)ncc2F)C1 [Compound 325, (R)-(3-((2-(5-chloro-1H-pyrrolo[2,3-b]pyridin-3-yl)-5-fluoropyrimidin-4-ylamino)methyl)piperidin-1-yl)(cyclopropyl)methanone]	–	–	4.70 to 5.30	> 5.30
CCCCC(=O)N1CCCC[C@@H]1CNc1nc(-c2c[nH]c3ncc(Cl)cc23)ncc1F [Compound 326, (R)-1-(2-((2-(5-chloro-1H-pyrrolo[2,3-b]pyridin-3-yl)-5-fluoropyrimidin-4-ylamino)methyl)piperidin-1-yl)pentan-1-one]	–	–	4.70 to 5.30	> 5.30
COCCC(=O)N1CCC[C@H](CNc2nc(-c3c[nH]c4ncc(Cl)cc34)ncc2F)C1 [Compound 327, (R)-1-(3-((2-(5-chloro-1H-pyrrolo[2,3-b]pyridin-3-yl)-5-fluoropyrimidin-4-ylamino)methyl)piperidin-1-yl)-3-methoxypropan-1-one]	–	–	> 5.30	> 5.30
O=S(=O)(CCCCl)N1CCCC[C@@H]1CNc1nc(-c2c[nH]c3ncc(Cl)cc23)ncc1F [Compound 330, (R)-2-(5-chloro-1H-pyrrolo[2,3-b]pyridin-3-yl)-N-((1-(3-chloropropylsulfonyl)piperidin-2-yl)methyl)-5-fluoropyrimidin-4-amine]	–	–	> 5.30	> 5.30
CC(C)CC(=O)N1CCC[C@H](Nc2nc(-c3c[nH]c4ncc(Cl)cc34)ncc2F)C1 [Compound 332]	–	–	> 5.30	> 5.30

SMILES	pIC50 [1, 3]	pEC50 [2, 4]	pIC50 [1, 5]	pEC50 [2, 6]
CCNC(=O)N1CCCC[C@@H]1CNc1nc(-c2c[nH]c3ncccc23)ncc1F [Compound 373, (R)—N-ethyl-2-((5-fluoro-2-(1H-pyrrolo[2,3-b]pyridin-3-yl)pyrimidin-4-ylamino)-methyl)piperidine-1-carboxamide]	–	–	4.70 to 5.30	< 5.00
CCCNC(=O)N1CCCC[C@@H]1CNc1nc(-c2c[nH]c3ncccc23)ncc1F [Compound 375, (R)-2-((5-fluoro-2-(1H-pyrrolo[2,3-b]pyridin-3-yl)pyrimidin-4-ylamino)methyl)-N-propylpiperidine-1-carboxamide]	–	–	4.70 to 5.30	5.00 to 5.30
CN1CCC(Nc2nc(-c3c[nH]c4ncc(Cl)cc34)ncc2F)C1=O (stereo not shown) [Compound 379]	–	–	4.70 to 5.30	> 5.30
CS(=O)(=O)N1CCCC[C@@H]1CNc1nc(-c2c[nH]c3ncc(Cl)cc23)ncc1F [Compound 381, (R)-2-(5-chloro-1H-pyrrolo[2,3-b]pyridin-3-yl)-5-fluoro-N-((1-(methylsulfonyl)-piperidin-2-yl)methyl)pyrimidin-4-amine]	–	–	> 5.30	> 5.30
CCS(=O)(=O)N1CCCC[C@@H]1CNc1nc(-c2c[nH]c3ncc(Cl)cc23)ncc1F [Compound 382, (R)-2-(5-chloro-1H-pyrrolo[2,3-b]pyridin-3-yl)-5-fluoro-N-((1-(ethylsulfonyl)-piperidin-2-yl)methyl)pyrimidin-4-amine]	–	–	> 5.30	> 5.30
O=S(=O)(CC(F)(F)F)N1CCCC[C@@H]1CNc1nc(-c2c[nH]c3ncc(Cl)cc23)ncc1F [Compound 383, (R)-2-(5-chloro-1H-pyrrolo[2,3-b]pyridin-3-yl)-5-fluoro-N-((1-(2,2,2-trifluoro-ethylsulfonyl)-piperidin-2-yl)methyl)pyrimidin-4-amine]	–	–	> 5.30	> 5.30
CS(=O)(=O)N1CCC[C@H](Nc2nc(-c3c[nH]c4ncc(Cl)cc34)ncc2F)C1 [Compound 389, (S)-2-(5-chloro-1H-pyrrolo[2,3-b]pyridin-3-yl)-5-fluoro-N-(1-(methylsulfonyl)piperidin-3-yl)pyrimidin-4-amine]	–	–	> 5.30	> 5.30
CCCCS(=O)(=O)N1CCC[C@H](Nc2nc(-c3c[nH]c4ncc(Cl)cc34)ncc2F)C1 [Compound 390, (S)—N-(1-(butylsulfonyl)piperidin-3-yl)-2-(5-chloro-1H-pyrrolo[2,3-b]pyridin-3-yl)-5-fluoropyrimidin-4-amine]	–	–	> 5.30	> 5.30
O=S(=O)(C1CC1)N1CCC[C@H](Nc2nc(-c3c[nH]c4ncc(Cl)cc34)ncc2F)C1 [Compound 391, (S)-2-(5-chloro-1H-pyrrolo[2,3-b]pyridin-3-yl)-N-(1-(cyclopropylsulfonyl)piperidin-3-yl)-5-fluoropyrimidin-4-amine]	–	–	> 5.30	> 5.30
O=S(=O)(CC1CCCC1)N1CCC[C@H](Nc2nc(-c3c[nH]c4ncc(Cl)cc34)ncc2F)C1 [Compound 392, (S)-2-(5-chloro-1H-pyrrolo[2,3-b]pyridin-3-yl)-N-(1-(cyclopentylmethylsulfonyl)piperidin-3-yl)-5-fluoropyrimidin-4-amine]	–	–	> 5.30	> 5.30
CCS(=O)(=O)N1CCC[C@H](Nc2nc(-c3c[nH]c4ncc(Cl)cc34)ncc2F)C1 [Compound 393, (S)-2-(5-chloro-1H-pyrrolo[2,3-b]pyridin-3-yl)-N-(1-(ethylsulfonyl)piperidin-3-yl)-5-fluoropyrimidin-4-amine]	–	–	> 5.30	> 5.30
CC(C)S(=O)(=O)N1CCC[C@H](Nc2nc(-c3c[nH]c4ncc(Cl)cc34)ncc2F)C1 [Compound 394, (S)-2-(5-chloro-1H-pyrrolo[2,3-b]pyridin-3-yl)-5-fluoro-N-(1-(isopropylsulfonyl)-piperidin-3-yl)pyrimidin-4-amine]	–	–	> 5.30	> 5.30
O=C(C1CCC1)N1CCC[C@H](Nc2nc(-c3c[nH]c4ncc(Cl)cc34)ncc2F)C1 [Compound 395]	–	–	> 5.30	> 5.30
COCCC(=O)N1CCC[C@H](Nc2nc(-c3c[nH]c4ncc(Cl)cc34)ncc2F)C1 [Compound 396]	–	–	> 5.30	> 5.30
CN1CCC[C@H](Nc2nc(-c3c[nH]c4ncc(Cl)cc34)ncc2F)C1=O [Compound 397]	–	–	> 5.30	> 5.30
CS(=O)(=O)N1CC[C@H](Nc2nc(-c3c[nH]c4ncc(Cl)cc34)ncc2F)C1 [Compound 398, (S)-2-(5-chloro-1H-pyrrolo[2,3-b]pyridin-3-yl)-5-fluoro-N-(1-(methylsulfonyl)pyrrolidin-3-yl)pyrimidin-4-amine]	–	–	> 5.30	> 5.30
COC1CCCCC1Nc1nc(-c2c[nH]c3ncc(Cl)cc23)ncc1F (stereo not shown) [Compound 412, 2-(5-chloro-1H-pyrrolo[2,3-b]pyridin-3-yl)-5-fluoro-N-(2-methoxycyclohexyl)-pyrimidin-4-amine]	–	–	> 5.30	> 5.30
